Key:
MOLM-13 = experiment: Proliferation inhibition, CellTiter-Glo, MOLM-13; format: cell-based, human; details: Homo sapiens, 96 h; MOLM-13 cells, IC50 (4 days), CellTiter-Glo; read-out: MOLM-13 IC50
Outline: (§1)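 About 10,000 cells per well in RPMI-1640 with 10% FBS. Compounds added 2 h after seeding at eight concentrations in duplicate (0.2% DMSO as 100% proliferation), then incubated ~96 h at 37° C, 5% CO2. ATP measured by CellTiter-Glo luminescence; IC50 from four-parameter logistic fit.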

MV-4-11 = experiment: Proliferation inhibition, CellTiter-Glo, MV-4-11; format: cell-based, human; details: Homo sapiens, MV4-11, 96 h; MV-4:11 cells, IC50 (4 days), CellTiter-Glo; read-out: MV-4:11 IC50
Outline: as §1

K-562 = experiment: Proliferation inhibition, CellTiter-Glo, K-562; format: cell-based, human; details: Homo sapiens, K562, 96 h; K-562 cells, IC50 (4 days), CellTiter-Glo; read-out: K-562 IC50
Outline: as §1

WT FLT3 = target: T1, WT FLT3 (Homo sapiens, UniProt P36888); experiment: WT FLT3 Lance Ultra TR-FRET kinase assay; format: biochemical
T1 construct: purchased Invitrogen PR4666C
T1 sequence (P36888 564-993 limits assumed): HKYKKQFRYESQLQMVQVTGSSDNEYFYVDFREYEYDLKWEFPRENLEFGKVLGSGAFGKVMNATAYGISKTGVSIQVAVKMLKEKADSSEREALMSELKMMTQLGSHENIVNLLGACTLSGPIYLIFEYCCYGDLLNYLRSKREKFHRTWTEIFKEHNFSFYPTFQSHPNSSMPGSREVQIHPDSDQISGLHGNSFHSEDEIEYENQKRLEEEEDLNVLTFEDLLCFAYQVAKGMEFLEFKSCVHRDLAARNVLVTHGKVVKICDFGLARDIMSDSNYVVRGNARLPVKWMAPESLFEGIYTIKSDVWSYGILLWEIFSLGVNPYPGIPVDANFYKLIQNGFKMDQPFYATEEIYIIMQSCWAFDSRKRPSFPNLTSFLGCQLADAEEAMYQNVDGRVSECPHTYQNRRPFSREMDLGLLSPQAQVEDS
Source text: (§2) High throughput 384-well Lance Ultra TR-FRET based kinase assays were established for the WT FLT3 and FLT3-ITD enzymes and employed a ULight-labeled peptide […] and FLT3 proteins labelled with Eu-conjugated antibody […] (WuXi Aptec). The principle of TR-FRET is based on transfer of energy between a donor and acceptor fluorophore that results when the fluorophores are within close proximity (˜100 Å) of each other. Recombinant WT FLT3 (#PR4666C, M.W. 48.6 kDa) was purchased from Invitrogen and FLT3-ITD (FLT3-ITD-W51, #F-12-12CG-10, M.W. 76 kDa) was purchased from Signalchem. Optimal assay conditions for the WT FLT3 enzyme assay were as follows: 0.5 nM FLT3 protein, 50 nM ULight-JAK-1 (Tyr1023) substrate peptide (PerkinElmer #TRF0121), 100 μM ATP, 60 min reaction time. Optimal assay conditions for the FLT3-ITD enzyme assay were as follows: 0.0625 nM FLT3-ITD protein, 50 nM ULight-JAK-1 (Tyr1023) substrate peptide, 50 μM ATP, 90 min reaction time. Briefly, 11 dose 3× serial dilutions were prepared for the test compounds and the reference compound and 100 nanoliters transferred to appropriate wells of 384-well assay plates. Five microliters of 2× enzyme/peptide were added into assay wells, assay plates centrifuged at 1000 rpm for about 30 seconds, sealed with sealing film and incubated for 30 min at 23° C. Assay buffer comprised 50 mM HEPES (pH 7.5), 1 mM EDTA, 0.01% Brij-35, 10 mM MgCl2 and 2 mM DTT. Next 5 μl of a 2× ATP mixture were added into the assay wells and the plates centrifuged at 1000 rpm about 30 seconds, sealed with sealing film and incubated for 23° C. for appropriate duration. Following assay incubation (30 min for WT FLT3 and 60 min for FLT3-ITD) 10 μl 2× Detection Mixture (Eu-W1024 Anti-phosphotyrosine (PT66) 2 nM and EDTA 10 mM) was added to assay wells, assay plates centrifuge at 1000 rpm about 1 minutes, sealed with sealing film and incubated at 23° C. for 60 minutes. Assay plates were read on a Perkin Elmer Envision reader at two wavelengths (665/615) and the ratio of […] calculated.
(§3) Data was expressed as % of inhibition relative to the vehicle control and calculated as follows:
(§4) Results were analyzed by XLFIT5 as % inhibition vs. log [compound concentration] and IC50 values were calculated by non-linear regression using four parameter-logistic equation. Fit=(A+((B−A)/(1+((C/x)^D)))). Res=(y−fit).

FLT3-ITD = target: T2, FLT3-ITD (Homo sapiens, UniProt P36888, DUP595-601); experiment: FLT3-ITD Lance Ultra TR-FRET kinase assay; format: biochemical
T2 construct: purchased Signalchem F-12-12CG-10
T2 sequence (P36888 with tags, fused parts or gaps DUP595-601 limits assumed): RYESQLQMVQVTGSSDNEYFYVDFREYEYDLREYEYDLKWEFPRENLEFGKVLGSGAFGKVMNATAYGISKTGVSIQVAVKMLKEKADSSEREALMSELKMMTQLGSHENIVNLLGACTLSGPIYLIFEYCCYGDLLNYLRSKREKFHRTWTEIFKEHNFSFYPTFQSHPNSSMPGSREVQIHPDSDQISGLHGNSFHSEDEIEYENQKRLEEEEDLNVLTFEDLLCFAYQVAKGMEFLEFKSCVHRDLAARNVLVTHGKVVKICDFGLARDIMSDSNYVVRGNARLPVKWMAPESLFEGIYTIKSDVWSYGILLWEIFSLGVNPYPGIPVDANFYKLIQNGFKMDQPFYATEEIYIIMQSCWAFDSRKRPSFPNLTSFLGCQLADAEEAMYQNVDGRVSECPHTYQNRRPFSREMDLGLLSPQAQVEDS
Source text: as §2, §3, §4

SMILES	IC50 (MOLM-13) [nM]	IC50 (MV-4-11) [nM]	IC50 (K-562) [nM]	IC50 (WT FLT3) [nM]	IC50 (FLT3-ITD) [nM]
CCc1nc(C(N)=O)c(Nc2cccc(CCNC(=O)[C@H](C)N(C)C(=O)/C=C/CN(C)C)c2)nc1C1CC1 [Compound 138, (S,E)-5-cyclopropyl-3-((3-(2-(2-(4-(dimethylamino)-N-methylbut-2-enamido)propanamido)ethyl)phenyl)amino)-6-ethylpyrazine-2-carboxamide]	1 to 10	< 1	> 500	0.201 to 0.5	0.201 to 0.5
CCc1nc(C(N)=O)c(Nc2cc(CCNC(=O)[C@H](C)N(C)C(=O)/C=C/CN(C)C)cc(OC)c2)nc1N(C)C [Compound 143]	< 1	< 1	> 500	0.101 to 0.2	0.101 to 0.2
CCc1nc(C(N)=O)c(Nc2cc(CCNC(=O)[C@H](C)N(C)C(=O)/C=C/CN(C)C)cc(OC)c2)nc1C1CC1 [Compound 144, (S,E)-5-cyclopropyl-3-((3-(2-(2-(4-(dimethylamino)-N-methylbut-2-enamido)propanamido)ethyl)-5-methoxyphenyl)amino)-6-ethylpyrazine-2-carboxamide]	< 1	< 1	> 500	0.201 to 0.5	0.201 to 0.5
CCc1nc(C(N)=O)c(Nc2cc(F)cc(CCNC(=O)[C@H](C)N(C)C(=O)/C=C/CN(C)C)c2)nc1C1CC1 [Compound 159, (S,E)-5-cyclopropyl-3-((3-(2-(2-(4-(dimethylamino)-N-methylbut-2-enamido)propanamido)ethyl)-5-fluorophenyl)amino)-6-ethylpyrazine-2-carboxamide]	1 to 10	< 1	> 500	0.501 to 1	0.201 to 0.5
CCc1cc(C(N)=O)c(Nc2cccc(CCNC(=O)[C@H](C)N(C)C(=O)/C=C/CN(C)C)c2)nc1N(C)C [Compound 322, (S,E)-6-(dimethylamino)-2-((3-(2-(2-(4-(dimethylamino)-N-methylbut-2-enamido)propanamido)ethyl)phenyl)amino)-5-ethylnicotinamide]	100 to 500	10 to 100	> 500	–	–
CCc1nc(C(N)=O)c(Nc2cccc([C@H](C)CNC(=O)[C@H](C)N(C)C(=O)/C=C/CN(C)C)c2)nc1C [Compound 325, 3-[3-[(1S)-2-[[(2S)-2-[[(E)-4-(dimethylamino)but-2-enoyl]-methyl-amino]propanoyl]amino]-1-methyl-ethyl]anilino]-6-ethyl-5-methyl-pyrazine-2-carboxamide]	100 to 500	100 to 500	> 500	–	–
CCc1nc(C(N)=O)c(Nc2cccc([C@@H](C)CNC(=O)[C@H](C)N(C)C(=O)/C=C/CN(C)C)c2)nc1C [Compound 326, 3-((3-((R)-1-((S)-2-((E)-4-(dimethylamino)-N-methylbut-2-enamido)propanamido)propan-2-yl)phenyl)amino)-6-ethyl-5-methylpyrazine-2-carboxamide]	> 500	> 500	> 500	–	–
C=CC(=O)N(C)CC(=O)NC[C@H](C)c1cccc(Nc2nc(CC(C)C)c(CC)nc2C(N)=O)c1 [Compound 512, (R)-6-ethyl-5-isobutyl-3-((3-(1-(2-(N-methylacrylamido)acetamido)propan-2-yl)phenyl)amino) pyrazine-2-carboxamide]	> 500	10 to 100	> 500	–	–
CCc1nc(C(N)=O)c(Nc2ccnc(CCNC(=O)CN(C)C(=O)/C=C/CN3CCC3)c2)nc1CC(C)C [Compound 604, (E)-3-((2-(2-(2-(4-(azetidin-1-yl)-N-methylbut-2-enamido)acetamido)ethyl)pyridin-4-yl)amino)-6-ethyl-5-isobutylpyrazine-2-carboxamide]	1 to 10	< 1	> 500	–	–

Continued, values first:

IC50 (MOLM-13) [nM]	IC50 (MV-4-11) [nM]	IC50 (K-562) [nM]	IC50 (WT FLT3) [nM]	IC50 (FLT3-ITD) [nM]	SMILES
< 1	< 1	> 500	0.501 to 1	0.201 to 0.5	CCc1nc(C(N)=O)c(Nc2cccc(CCNC(=O)[C@H](C)N(C)C(=O)/C=C/CN(C)C)c2)nc1N(C)C [Compound 137, (S,E)-5-(dimethylamino)-3-((3-(2-(2-(4-(dimethylamino)-N-methylbut-2-enamido)propanamido)ethyl)phenyl)amino)-6-ethylpyrazine-2-carboxamide]
< 1	< 1	> 500	0.201 to 0.5	0.201 to 0.5	CCc1nc(C(N)=O)c(Nc2cccc(CCNC(=O)[C@H](C)N(C)C(=O)/C=C/CN3CCC3)c2)nc1N(C)C [Compound 156, (S,E)-3-((3-(2-(2-(4-(azetidin-1-yl)-N-methylbut-2-enamido)propanamido)ethyl)phenyl)amino)-5-(dimethylamino)-6-ethylpyrazine-2-carboxamide]
< 1	< 1	> 500	0.101 to 0.2	0.101 to 0.2	CCc1nc(C(N)=O)c(Nc2cc(F)cc(CCNC(=O)[C@H](C)N(C)C(=O)/C=C/CN(C)C)c2)nc1N(C)C [Compound 158, (S,E)-5-(dimethylamino)-3-((3-(2-(2-(4-(dimethylamino)-N-methylbut-2-enamido)propanamido)ethyl)-5-fluorophenyl)amino)-6-ethylpyrazine-2-carboxamide]
1 to 10	1 to 10	–	0.501 to 1	> 1	CCc1nc(C(N)=O)c(Nc2cncc(CCNC(=O)[C@H](C)N(C)C(=O)/C=C/CN(C)C)c2)nc1C1CC1 [Compound 306, (S, E)-5-cyclopropyl-3-((5-(2-(2-(4-(dimethylamino)-N-methylbut-2-enamido)propanamido)ethyl)pyridin-3-yl)amino)-6-ethylpyrazine-2-carboxamide]
100 to 500	10 to 100	> 500	–	–	CCc1nc(C(N)=O)c(Nc2cccc([C@H](C)CNC(=O)CN(C)C(=O)/C=C/CN(C)C)c2)nc1C [Compound 324, (S,E)-3-((3-(1-(2-(4-(dimethylamino)-N-methylbut-2-enamido)acetamido)propan-2-yl)phenyl)amino)-6-ethyl-5-methylpyrazine-2-carboxamide]
1 to 10	1 to 10	> 500	–	–	CCc1nc(C(N)=O)c(Nc2ccc(F)c(CCNC(=O)CN(C)C(=O)/C=C/CN3CCC3)c2)nc1C1CC1 [Compound 607, (E)-3-((3-(2-(2-(4-(azetidin-1-yl)-N-methylbut-2-enamido)acetamido)ethyl)-4-fluorophenyl)amino)-5-cyclopropyl-6-ethylpyrazine-2-carboxamide]

— US20240262795A1, “PYRAZINE COMPOUNDS AS INHIBITORS OF FLT3” (Biomea Fusion, Inc., priority 2021, published 2024)
